Assay results taken from patent US9339668B2, “Extract of aerial parts of oats harvested before ear emergence” (priority 2008, dated 2016).

System: Prostaglandin PG6KF1α production in stimulated human keratinocyte
Test: Production of prostaglandin PG6KF1α induced at the keratinocyte by calcium ionophore A23187
Assay type: cell-based
Details: 10 μg/ml
Excerpt: Principle: The keratinocyte, the most represented cell at the epidermis, plays a significant role in initiating and modulating inflammatory reactions of the skin. With the model it is possible to determine in vitro the capabilities of various molecules of modulating the production of mediators stemming from the metabolism of arachidonic acid. Prostaglandin PG6KF1α is a stable metabolite of prostacyclin PGI2, a major metabolite produced by the stimulated human keratinocyte. An acetone extract of aerial parts of oats harvested before ear emergence and its fractions were evaluated on the production of this prostaglandin induced at the keratinocyte by the calcium ionophore A23187 (stimulating the cascade of arachidonic acid).

With `O=c1cc(-c2ccc(O)c(O)c2)oc2cc(O)c([C@@H]3O[C@H](CO)[C@@H](O)[C@H](O)[C@H]3OC3OC[C@@H](O)[C@@H](O)[C@@H]3O)c(O)c12` (stereo partly shown) [isoorientin-2″-O-arabinosyl] the “inhibition of PG6KF1α production” value was 55%.
